Reference: US7947854B2, “Bis-cationic compounds and use thereof” (The University of Sydney, priority 2003, dated 2011)
Where two headings read alike, the source gives them in different places.

What was measured:
Format in all cases: cell-based
[1] = test system: Candida albicans ATCC 10231; experiment: Antifungal susceptibility testing, microdilution MIC
Procedure: (§1) Antifungal susceptibility testing. The antifingal activity of the compounds was measured by a standard microdilution method. […] The fungal strains tested included Cryptococcus neoformans H99, Cryptococcus neoformans ATCC 90112 and Candida albicans ATCC 10231. All tests were performed in duplicate.
(§2) A range of cationic compounds were assayed for antifungal activity in a standardised serial dilution sensitivity test against C. neoformans ([…]) and C. Albicans (ATCC 10231).

[2] = test system: Cryptococcus neoformans ATCC 90112; experiment: as above
Procedure: as §1, §2

[3] = test system: erythrocyte; conditions: 37° C., 1 h
Procedure: Human blood was collected in 10 mL Vacutainer tubes containing potassium-EDTA as anticoagulant. The blood from each vacutainer was transferred to a 50 mL centrifuge tube and the cells washed three times with calcium- and magnesium-free phosphate buffered saline (PBS) (Gibco) by centrifugation at 2000×g for 15 min. The third supernatant was clear and colourless. Cells were stored in PBS for up to two weeks. The cell suspension in PBS (0.5 mL) was mixed with a stock solution of test substance (0.5 mL) at the appropriate concentration (final erythrocyte concentration of approx. 0.5×10^9 per mL). The mixtures were incubated at 37° C. for 1 h with gentle shaking, then centrifuged at 2000×g for 10 min. The supernatant was diluted 10-fold with PBS and the optical density measured at 540 nm. The values for 0% and 100% lysis were determined by incubating cells with PBS or 0.1% Triton X-100 (in water), respectively. Assays were carried out in triplicate.

[4] = Table 7, read-out: MIC (μM) C. alb. (10231)
[5] = Table 7, read-out: MIC (μM) Crypto. (ATCC 90112)
[6] = Candida albicans, ATCC10231, Table 7, read-out: MIC (μM) C. alb. (10231)
[7] = Cryptococcus neoformans, ATCC90112, Table 7, read-out: MIC (μM) Crypto. (ATCC 90112)

Compound | MIC [1, 6] | Haemolytic assay (%) ([3]; 3.5 μM) | Haemolytic assay (%) ([3]; 35 μM) | Haemolytic assay (%) ([3]; 88 μM) | Haemolytic assay (%) ([3]; 175 μM) | Haemolytic assay (%) ([3]; 350 μM) | other results
CCCCCCCC[N+](CCCCCCCC)(CCCCCCCC)CCCCCCCCCCCC[N+](CCCCCCCC)(CCCCCCCC)CCCCCCCC.[Cl-].[Cl-] [1,12-Bis-(trioctylammonium)dodecane dichloride] | – | – | – | – | – | – | MIC [1, 4]: 100 µM; MIC [2, 5]: 35 µM
CC[N+](CC)(CC)CCCCCCCCCCCC[N+](CC)(CC)CC [1,12-Bis-(triethylammonium)dodecane dibromide] | – | – | – | – | – | – | MIC ([1]; Candida albicans, ATCC10231, read-out: MIC (μM) C. alb. (10231)): 22 µM; MIC ([2]; Cryptococcus neoformans, ATCC90112, read-out: MIC (μM) Crypto. (ATCC 90112)): 11 µM
CCCC[N+](CCCC)(CCCC)CCCCCCCCCCC[N+](CCCC)(CCCC)CCCC [1,11-Bis-(tributylammonium)undecane dichloride] | 44 µM | – | – | – | – | – | MIC [2, 7]: 22 µM
C[N+]1(CCCCCCCCCCCC[N+]2(C)CCOCC2)CCOCC1 [1,12-Bis-(1-methylmorpholinium)dodecane dibromide] | 88 µM | – | – | – | – | – | MIC [2, 7]: 44 µM
CCCCCCCCCCCCCCCC[N+](CCCC)(CCCC)CCCC | 1.4 µM | 2.5% | 4% | 19% | 75% | 100% | –
C[N+]1(C)CCOC(O)(c2ccc(-c3ccc(C4(O)C[N+](C)(C)CCO4)cc3)cc2)C1 (stereo not shown) [Hemicholinium dibromide, reference compound] | ≥ 350 µM | 350 μM = 0% 175 μM = 0% 88 μM = 0% 35 μM = 0% 3.5 μM = 0% | 350 μM = 0% 175 μM = 0% 88 μM = 0% 35 μM = 0% 3.5 μM = 0% | 350 μM = 0% 175 μM = 0% 88 μM = 0% 35 μM = 0% 3.5 μM = 0% | 350 μM = 0% 175 μM = 0% 88 μM = 0% 35 μM = 0% 3.5 μM = 0% | 350 μM = 0% 175 μM = 0% 88 μM = 0% 35 μM = 0% 3.5 μM = 0% | –
CCCCCC[N+](CCCCCC)(CCCCCC)CCCCCCCCCCCC[N+](CCCCCC)(CCCCCC)CCCCCC.[Cl-].[Cl-] [1,12-Bis-(trihexylammonium)dodecane dichloride] | – | – | – | – | – | – | MIC [1, 4]: 8.8 µM; MIC [2, 5]: 17.5 µM
CC[N+](CC)(CC)CCOc1cccc(OCC[N+](CC)(CC)CC)c1OCC[N+](CC)(CC)CC [Gallamine triethiodide, reference compound] | ≥ 350 µM | 350 μM = 0% 175 μM = 0% 88 μM = 0% 35 μM = 0% 3.5 μM = 0% | 350 μM = 0% 175 μM = 0% 88 μM = 0% 35 μM = 0% 3.5 μM = 0% | 350 μM = 0% 175 μM = 0% 88 μM = 0% 35 μM = 0% 3.5 μM = 0% | 350 μM = 0% 175 μM = 0% 88 μM = 0% 35 μM = 0% 3.5 μM = 0% | 350 μM = 0% 175 μM = 0% 88 μM = 0% 35 μM = 0% 3.5 μM = 0% | –
